Experimental data as given in patent US4656249A, “Peptides with relaxin activity” (Howard Florey Institute of Experimental Physiology and …, priority 1982, dated 1987).
Positions of bridges follow the written chain, without caps; N, C: chain ends. Residues, ends and D or L forms follow the SMILES beside them. Chains are numbered I, II in the order given. No end group written: not given here.

How the values were obtained:
[1] = solubility behaviour of relaxin B chain peptides in aqueous solution; assay type: physicochemical; conditions: crude synthetic B chain
Description: We have carried out research into the chemical synthesis of relaxin and its structural analogues as part of a systematic study of the structure-function relationships in the hormone molecule. The purified separate chains of pig relaxin have been obtained in approximately 10% yield (based on crude). The major impurities in the synthetic peptides appear to have arisen through side-reactions of the cysteine residues occurring during the HF cleavage step. In more recent syntheses improved yields have been obtained using the HF stable S-ethyl mercapto protecting group for cysteine. […] Column chromatography on Sephadex, cellulose, polyamide or polystyrene resins results in virtually a complete loss of peptide by irreversible absorption (16). These properties have made purification of synthetic relaxin B chain peptides and their coupling to A chain particularly difficult.
As shown by FIG. 3(c), the CD spectra indicate that shortening to 25 residues results in a change of from the beta-configuration to an unordered conformation. This conformational change is reflected in an enhanced solubility of the peptide in aqueous solution, a loss of the adsorptive behaviour and an improvement in the combination yield with the A chain. Using the above-described method the combination yield rises to 10%. […]

[2] = tested on: rat uterine contractility; experiment: rat uterine contractility assay (bioassay of recombined relaxin peptides); assay type: cell-based; conditions: for Recombination Yield (by BIOASSAY), actual combination yield based on the B chain: combination of A and B chains, yield measured by bioassay; for Recombination Yield (by BIOASSAY), recalculated on the basis of 100% yield for the recombined natural A22 and B28 chains: relative to recombined natural A22 + B28 = 100%
Description: The recombination of the relaxin peptide chains was monitored by HPLC and radioimmunoassay using an antibody raised to native porcine relaxin A22B29 and I125 Bolton-Hunter labelled A22B29 tracer (16). The biological activity of the recombined products was assessed using the rat uterine contractility assay (18).
The biological activity of the synthetic relaxin peptides was tested in the rat uterine contractility assay (18).

Compound	pH at which the peptide is soluble [1]	Recombination Yield (by BIOASSAY), actual combination yield based on the B chain [2] [%]	Recombination Yield (by BIOASSAY), recalculated on the basis of 100% yield for the recombined natural A22 and B28 chains [2] [%]
B(1-29): synthetic porcine relaxin B chain of 29 residues (B chain of CMa')	> 5.5		
CC[C@H](C)[C@@H]1NC(=O)[C@H](CC(=O)O)NC(=O)[C@H](CCCCN)NC(=O)[C@H](CCCNC(=N)N)NC(=O)[C@H]([C@@H](C)CC)NC(=O)[C@@H]2CSSC[C@H](NC(=O)[C@H](CCCCN)NC(=O)[C@H](CCC(=O)O)NC(=O)[C@H](CO)NC(=O)[C@@H](N)CC(C)C)C(=O)N[C@@H](CSSC[C@H](NC(=O)[C@H](C)NC(=O)[C@H](CCCCN)NC(=O)[C@@H](NC(=O)[C@H](Cc3ccccc3)NC(=O)[C@H](CC(=O)O)NC(=O)[C@H](CC(N)=O)NC(C)=O)[C@@H](C)CC)C(=O)NCC(=O)N[C@@H](CCCNC(=N)N)C(=O)N[C@@H](CCC(=O)O)C(=O)N[C@@H](CC(C)C)C(=O)N[C@@H](C(C)C)C(=O)N[C@@H](CCCNC(=N)N)C(=O)N[C@@H](CC(C)C)C(=O)N[C@@H](Cc3c[nH]c4ccccc34)C(=O)N[C@@H](C(C)C)C(=O)N[C@@H](CCC(=O)O)C(=O)N[C@@H]([C@@H](C)CC)C(=O)N[C@H](C(=O)NCC(N)=O)CSSC[C@@H](C(=O)O)NC(=O)[C@H](CC(C)C)NC(=O)[C@H](CCCNC(=N)N)NC(=O)[C@H](C)NC1=O)C(=O)N[C@@H](CCC(N)=O)C(=O)N[C@@H](C(C)C)C(=O)NCC(=O)N2 [SA (4-22) SB[N--acetyl](4-23)NH2] (I: Ac-NDFIKACGRELVRLWVEICG-NH2 / II: H-LSEKCCQVGCIRKDIARLC-OH; disulfide I:7-II:6, I:19-II:19, II:5-II:10)		1.3	5
I: RMTLSEKCCQVGCIRKDIARLC / II: Ac-NDFIKACGRELVRLWVEICG-NH2 (disulfide I:8-I:13, I:9-II:7, I:22-II:19) [SA (1-22) SB[N--acetyl](4-23)NH2]		2.4	10
